Data set [1] deals with human pancreatic cancer cells HPAC (carrying KRas G12D mutant protein). The data set can be described thus: In vivo pharmacodynamics, subcutaneous xenograft of human pancreatic cancer cells HPAC. The note with it: NOD/SCID mice, 50 mpk, PO; for Tumor volume (mm3) (Day 20): BID × 21; for TGI (%): BID × 21, Day 20. The protocol:
The following materials were used in this experiment: NOD/SCID mice, 6-8 weeks old, female, Jiangsu Ji Cai Yao Kang Biotechnology Co., Ltd.; HPAC cells (carrying KRas G12D mutant protein, ATCC); Captisol (Wuhan Fengyao Tonghui Chemical Products Co., Ltd., Cas #182410-00-0); Sodium acetate (aladdin); MC (sigma, 9004-67-5).
The experiment was carried out as follows: Female NOD/SCID mice aged 6-8 weeks were subcutaneously inoculated with 1-10^7 HPAC cells on the right posterior side of the back, with an inoculation volume of 0.1 mL. When the tumors grew to an average volume of 150 mm^3, the mice were randomly grouped for administration according to the tumor size and body weight. The day of administration was regarded as day 0. The administration was carried out once a day. The test compound was administered by tail vein injection or gavage, with 5 mice in each group at a dose of 10 mg/kg. The control group was administered with an equal volume of the solvent control by tail vein injection or gavage.
During the experiment, the tumor volume and body weight were measured twice a week. The formula for calculating the tumor volume was: Tumor volume (mm^3)=0.5×(tumor major axis×tumor minor axis^2). The average tumor inhibition rate TGI %=[(average tumor volume of the control group−average initial tumor volume of the control group)−(average tumor volume of the administration group−average initial tumor volume of the administration group)]/(average tumor volume of the control group−average initial tumor volume of the control group).

Data set [2] has as its system KRAS G12D mutated AGS human gastric adenocarcinoma cells. The data set can be described thus: Proliferation inhibition of KRAS G12D mutant AGS cells, another experiment with similar protocol (includes MRTX1133). It is filed as cell-based. The note with it: Homo sapiens. How it is done:
In another experiment, using a protocol similar to the one described above, the inhibitory activity of some representative compounds of the present invention against KRAS G12D mutated AGS human gastric adenocarcinoma cells was determined.
The synthesis of compound MRTX1133 was performed according to the method described in J. Med. Chem. 2022, 65, 4, 3123-3133.

Data set [3] is described as follows: Mouse pharmacokinetics (IV and PO). Format: in vivo. The note with it: 10 mg/kg, male CD-1 mice, PO (gavage), 1 mg/mL at 10 mL/kg, plasma. How it is done:
The pharmacokinetic properties of the compounds of the present invention were evaluated through a mouse pharmacokinetic experiment.
Male CD-1 mice, aged 6-8 weeks old, were purchased from Zhejiang Vital River Laboratory Animal Co., Ltd.
IV administration group: The compound was formulated into a sodium acetate buffer solution (10 mM sodium acetate solution, adjusted to pH 4.0 with acetic acid) containing 20% Captisol (sulfobutyl β-cyclodextrin) so that the final concentration of each compound was 0.6 mg/mL. The drug formulation was injected into the tail vein of CD-1 mice at an injection volume of 5 mL/kg. After administration, blood samples were collected from the submandibular vein or by other appropriate methods at 5 min, 15 min, 30 min, 1 h, 2 h, 4 h, 6 h, 8 h, and 24 h. The blood samples were centrifuged at a low temperature for 6 minutes, and the plasma was collected and stored at −80° C. for testing. The PO administration group formulated the compound into a solvent of 0.5% Tween 80+99.5% (0.5% MC (400 cp)) or 5% DMSO+95% (0.5% MC (400 cp)) so that the final concentration of each compound was 1 mg/mL. The drug formulation was administered to CD-1 mice by gavage at a volume of 10 mL/kg. After administration, blood samples were collected from the submandibular vein or by other appropriate methods at 15 min, 30 min, 1 h, 2 h, 4 h, 6 h, 8 h, and 24 h. The blood samples were centrifuged at a low temperature for 6 minutes, and the plasma was collected and stored at −80° C. for testing.
10 μL of the plasma sample was taken, and 200 μL of methanol containing an internal standard was added as a precipitating agent to precipitate plasma proteins and extract the compounds to be tested in the plasma. After centrifugation at a low temperature, 10 μL of the supernatant was injected, and the drug blood concentration was analyzed by LC-MS/MS. The pharmacokinetic parameters were calculated using Winnonlin based on the drug concentration data at different time points.

Data set [4] deals with KRAS-G12D mutated human colon carcinoma cells GP2d. The data set can be described thus: Antitumor effect, subcutaneous xenograft of KRAS-G12D mutated human colon carcinoma cells GP2d. Format: in vivo. The settings on record: BALB/c nude mice, 10 mg/kg, gavage, twice a day; for TGI (%): Day 21. How it is done:
GP2d cells were purchased from Nanjing Kebai Biotechnology Co., Ltd. BALB/c nude mice, female, were purchased from Jiangsu GemPharmatech LLC. GP2d cells were cultured in culture medium containing DMEM and 10% FBS. The cells in the logarithmic growth phase were collected and resuspended in PBS to an appropriate concentration for subcutaneous tumor inoculation in mice. The experimental mice were subcutaneously inoculated on the right posterior side of the back. The inoculation dose of GP2d cells was 1×10^7 cells per mouse, and the cells were resuspended in a 1:1 mixture of PBS and Matrigel (the inoculation volume was 0.1 mL). When the average tumor volume grew to 150 mm^3, the mice were randomly grouped for administration according to the tumor size and body weight. Administration was started immediately after grouping, and the day of administration was regarded as day 0. The administration was carried out twice a day by gavage, at a dose of 10 mg/kg or a solvent control (0.5% Tween 80+99.5% of (0.5% MC (400 cp))). During the experiment, the body weight of the mice and the size of the tumors were measured twice a week.
The formula for calculating the tumor size: Tumor volume (mm^3)=0.5×(long diameter of tumor×(short diameter of tumor)^2).
Relative tumor inhibition rate TGI (%): TGI %=[1−(average tumor volume at the end of administration of the treatment group−average tumor volume at the beginning of administration of the treatment group)/(average tumor volume at the end of administration of the vehicle control group −average tumor volume at the beginning of administration of the vehicle control group)]×100%.
In general terms: In xenograft studies the graft and the host belong to different species.

SMILES strings stand for the structures.

The text below walks through data of US20260176284A1, “Compounds with Anti-KRAS Mutated Tumor Activity” (Trasveda Ltd., priority 2022, published 2026).

The IC50 is the midpoint of a concentration-inhibition curve. Broadly, the AUC(0-inf) is total exposure, with the tail of the curve extrapolated. In general, AUC(0-t) refers to exposure summed from dosing to a finite time, without extrapolation to infinity. Read a low AUC(0-t) as less exposure. The half-life is how long it takes for the measured level to halve.

On to `C#Cc1c(F)ccc2cc(O)cc(-c3nc(OC)c4c(N5C[C@H]6CC[C@@H](C5)N6)nc(OC[C@]5(C)CN(C)CC[C@@H]5C(F)F)nc4c3F)c12` [Example 261, 4-(4-((1R,5S)-3,8-diazabicyclo[3.2.1]octan-3-yl)-2-(((3S,4S)-4-(difluoromethyl)-1,3-dimethylpiperidin-3-yl)methoxy)-8-fluoro-5-methoxypyrido[4,3-d]pyrimidin-7-yl)-5-ethynyl-6-fluoronaphthalen-2-ol], for which, in data set [1], the “Tumor volume (mm3) (Day 20)” value amounted to 117 mm3 and the “TGI (%)” value was determined as 105%. In data set [2], this compound returned an IC50 of 2 nM.

On to `C#Cc1c(F)ccc2cc(O)cc(-c3nc(OC)c4c(N5C[C@H]6CC[C@@H](C5)N6)nc(OC[C@]5(C)CN(C)CC/C5=C\F)nc4c3F)c12` [Example 265, 4-(4-((1R,5S)-3,8-diazabicyclo[3.2.1]octan-3-yl)-8-fluoro-2-(((S,E)-4-(fluoromethylene)-1,3-dimethylpiperidin-3-yl)methoxy)-5-methoxypyrido[4,3-d]pyrimidin-7-yl)-5-ethynyl-6-fluoronaphthalen-2-ol], for which, in data set [1], the “Tumor volume (mm3) (Day 20)” value is 113 mm3 and the “TGI (%)” value was 106%. The same compound gave an IC50 in data set [2] of 2 nM.

`[2H]C([2H])([2H])N1CC/C(=C\F)[C@](C)(C([2H])([2H])Oc2nc(N3C[C@H]4CC[C@@H](C3)N4)c3cnc(-c4cc(O)cc5ccc(F)c(C#C)c45)c(F)c3n2)C1` [Example 304, 4-(4-((1R,5S)-3,8-diazabicyclo[3.2.1]octan-3-yl)-8-fluoro-2-(((S,E)-4-(fluoromethylene)-3-methyl-1-(methyl-d3)piperidin-3-yl)methoxy-d2)pyrido[4,3-d]pyrimidin-7-yl)-5-ethynyl-6-fluoronaphthalen-2-ol] gave an IC50 in data set [2] of 2 nM. In data set [3], this compound gave an AUC(0-inf) of 1500 ng·h/mL, an area under the curve AUC(0-t) of 1420 ng·h/mL and a half-life of 8.74 h.

On to `C#Cc1c(F)ccc2cc(O)cc(-c3c(F)cc4c(N5CC6CCC(C5)N6)nc(OC[C@]5(C)CN(C)CC/C5=C\F)nc4c3F)c12` (atropisomer, axis not shown; (Ra)) [Example 77, (Ra)-4-(4-((1R,5S)-3,8-diazabicyclo[3.2.1]octan-3-yl)-6,8-difluoro-2-(((S,E) 4-(fluoromethylene)-1,3-dimethylpiperidin-3-yl)methoxy)quinazolin-7-yl)-5-ethynyl-6-fluoronaphthalen-2-ol], for which, in data set [1], the “Tumor volume (mm3) (Day 20)” value was determined as 255 mm3 and the “TGI (%)” value is given as 83%. The compound also gave an IC50 in data set [2] of 4 nM.

On to `CN1CC/C(=C\F)[C@](C)(COc2nc(N3CC4CCC(C3)N4)c3cc(Cl)c(-c4cccc5sc(N)c(C#N)c45)c(F)c3n2)C1` (single isomer, unassigned) [Example 313-1], for which, in data set [4], the “Tumor volume (mm3) (Day 21)” value is 256 mm3 and the “TGI (%)” value was found to be 88%.

Compound `C#Cc1c(F)ccc2cc(O)cc(-c3nc(C#C)c4c(N5CC6CCC(C5)N6)nc(OC[C@]5(C)CN(C)CC/C5=C\F)nc4c3F)c12` [Example 332] showed a half-inhibitory concentration (IC50) in data set [2] of 1 nM. For the same compound, in data set [4], the “Tumor volume (mm3) (Day 21)” value is reported as 419 mm3 and the “TGI (%)” value amounted to 70%.

With `C#Cc1c(F)ccc2cc(O)cc(-c3c(F)cc4c(N5CC6CCC(C5)N6)nc(OC[C@]5(C)CN(C)CC[C@@H]5C(F)F)nc4c3F)c12` (atropisomer, axis not shown; (Ra)) [Example 46-3, (Ra)-4-(4-((1R,5S)-3,8-diazabicyclo[3.2.1]octan-3-yl)-2-(((3S,4S)-4-(difluoromethyl)-1,3-dimethylpiperidin-3-yl)methoxy)-6,8-difluoroquinazolin-7-yl)-5-ethynyl-6-fluoronaphthalen-2-ol], in data set [1], the “Tumor volume (mm3) (Day 20)” value is 135 mm3 and the “TGI (%)” value is listed as 102%. In data set [2], half-maximal inhibition (IC50) required 7 nM. In data set [3], this compound showed an area under the curve AUC(0-inf) of 414 ng·h/mL, an AUC(0-t) of 384 ng·h/mL and a half-life of 10.8 h.

As for `[2H]C([2H])([2H])N1CC/C(=C\F)[C@](C)(COc2nc(N3C[C@H]4CC[C@@H](C3)N4)c3cnc(-c4cc(O)cc5ccc(F)c(C#C)c45)c(F)c3n2)C1` [Example 306, 4-(4-((1R,5S)-3,8-diazabicyclo[3.2.1]octan-3-yl)-8-fluoro-2-(((S,E)-4-(fluoromethylene)-3-methyl-1-(methyl-d3)piperidin-3-yl)methoxy)pyrido[4,3-d]pyrimidin-7-yl)-5-ethynyl-6-fluoronaphthalen-2-ol], half-maximal inhibition in data set [2] (IC50) required 5 nM. In data set [3], this compound had an area under the curve AUC(0-inf) of 801 ng·h/mL, an AUC(0-t) of 759 ng·h/mL and a half-life of 7.17 h.

Turning to `[2H]C([2H])([2H])N1CC[C@H](C(F)F)[C@](C)(C([2H])([2H])Oc2nc(N3CC4CCC(C3)N4)c3cc(Cl)c(-c4cccc5sc(N)c(C#N)c45)c(F)c3n2)C1` (single isomer, unassigned) [Example 315-1], in data set [4], the “Tumor volume (mm3) (Day 21)” value is reported as 325 mm3 and the “TGI (%)” value amounted to 80%.

`C#Cc1c(F)ccc2cc(O)cc(-c3ncc4c(N5C[C@H]6CC[C@@H](C5)N6)nc(OC[C@]5(C)CN(C)CC[C@@H]5C(F)F)nc4c3F)c12` [Example 105, 4-(4-((1R,5S)-3,8-diazabicyclo[3.2.1]octan-3-yl)-2-(((3S,4S)-4-(difluoromethyl)-1,3-dimethylpiperidin-3-yl)methoxy)-8-fluoropyrido[4,3-d]pyrimidin-7-yl)-5-ethynyl-6-fluoronaphthalen-2-ol]: in data set [1], the “Tumor volume (mm3) (Day 20)” value is given as 122 mm3 and the “TGI (%)” value stood at 104%. In data set [2], this compound showed a half-maximal inhibitory concentration (IC50) of 6 nM.

In turn, `CN1CC[C@H](C(F)F)[C@](C)(COc2nc(N3CC4CCC(C3)N4)c3cc(Cl)c(-c4c(F)ccc5sc(N)c(C#N)c45)c(F)c3n2)C1` (single isomer, unassigned) [Example 325-1] had a half-maximal inhibitory concentration (IC50) in data set [2] of 2 nM. For the same compound, in data set [4], the “Tumor volume (mm3) (Day 21)” value came out at 228 mm3 and the “TGI (%)” value was found to be 91%.
